The values below are quoted from earlier work in US11807631B2, “Herboxidiene derivatives and uses thereof” (Purdue Research Foundation, priority 2017, dated 2023).

The subject of the series is human normal fibroblast cell line, W1-38.

With `COC(C(C)O)C(C)C1OC1(C)CC(C)/C=C/C=C(\C)C1OC(CC(=O)O)CCC1C` (stereo not shown) [Herboxidiene/GEX1A], the cell cycle arrest entry is “induces both G1 and G2/M cell cycle arrest”.
